Source: US20150064230A1, “SUSTAINED RELEASE DELIVERY OF ONE OR MORE AGENTS” (Mati Therapeutics Inc., priority 2009, published 2015)
Blank lines part the entries; values can stand above or below the molecule they belong to.

What was measured:
[1] = Elution of latanoprost from silicone drug cores with excipients in PBS (FIGS. 9-12); format: physicochemical; details: 37° C., 100 cpm, 10% glycerol, 5% PEG400, 7.3 wt % DMPC or EPG in Formulations 1 and 2
Procedure: The silicone formulation (MED6385) is a two part system. Part A contains the silicone and crosslinker while Part B contains the tin catalyst to promote crosslinking. The two parts are combined in a final ratio of 200:1 (Part A: Part B). The required amounts of Latanoprost, the selected excipient (DMPC or EPG), the crosslinker, MED6385 Part A and B are weighed onto a glass slide and mixed for approximately 2 minutes using a plastic mini spatula. Quantities used in the preparation of specific examples are shown below.
After the silicone/latanoprost mixing is complete, the mixture is loaded in the barrel of the syringe extrusion system. The plunger is inserted and excess air is removed. The syringe is then loaded into the extrusion apparatus.
After setup, the extrusion system activated and a silicone latanoprost mixture is extruded down the length of the polyimide tubing. Once the mixture reaches the bottom of the tubing, the tubing is cut using a razor blade and clamped on both ends.
The clamped section of tubing is placed in a humidity chamber to be cured.
Samples, including those shown in FIGS. 9-12, were analyzed for elution by immersion in a PBS (phosphate buffered saline) elution medium. Temperature was maintained at 37° C. with 100 cpm shaking. The elution medium was changed daily (except weekends) for the first two weeks and weekly thereafter. Elution media samples were analyzed by reversed-phase chromatography. Samples were prepared for HPLC analysis by adding 200 μL of internal standard solution (2.4 μg/mL of butylated hydroxyanisole in isopropanol) and vortexing to mix. The amount of latanoprost eluted was determined using a reversed phase HPLC UV detection using a Waters SunFire C18, 3.5 μm, 3.0×100 mm column and detection conditions of the following: 1.0 mL/min flow rate, 200 μL injection volume, 210 nm detection wavelength, using gradient of solvents over a run time of 6 minutes (time zero=63% mobile phase A, 37% mobile phase B, time 4.9 minutes=35% A, 65% B, time 5 minutes=63% A, 37% B) comprising 0.1% Phosphoric Acid in Water (mobile Phase A) and ACN (mobile phase B), 50° C. column temperature set point.

[2] = cited from earlier work
subjects = details: clinical trials, cited from earlier work
[3] = after topical administration; studies in man; cited from earlier work

SMILES: CCCCCCCCCCCCCCCCCC(=O)O[C@H](COC(=O)CCCCCCCCCCCCCCC)COP(=O)([O-])OCC[N+](C)(C)C [PSPC, palmitoyl stearoyl phosphatidylcholine]
release (elution) rate of latanoprost from silicone matrix with excipient relative to no excipient [1]: decreased elution rate

SMILES: OCC(O)CO [glycerol]
release (elution) rate of latanoprost from silicone matrix with excipient relative to no excipient [1]: rate is increased relative to control

SMILES: CCCCCCCCCCCCCCCCCC(=O)OC[C@H](COP(=O)([O-])OCC[N+](C)(C)C)OC(=O)CCCCCCCCCCCCCCCCC [DSPC, distearoyl phosphatidylcholine]
release (elution) rate of latanoprost from silicone matrix with excipient relative to no excipient [1]: decreased elution rate

SMILES: CC(C)OC(=O)CCC/C=C\C[C@@H]1[C@@H](CC[C@@H](O)CCc2ccccc2)[C@H](O)C[C@@H]1O [latanoprost, isopropyl-(Z)-7[(1R,2R,3R,5S)3,5-dihydroxy-2-[(3R)-3-hydroxy-5-phenylpentyl]cyclopentyl]-5-heptenoate]
solubility in acetone, ethanol, ethyl acetate, isopropanol, methanol and octanol [2]: freely soluble | solubility in acetonitrile [2]: very soluble | solubility in water [2]: practically insoluble in water | aqueous solubility ([2]; in water at 25 degrees C.): 50 micrograms/mL | aqueous solubility, by weight ([2]; in water at 25 degrees C.): about 0.005 % by weight | conjunctivitis, diplopia, discharge from the eye, subjects (subjects; Xalatan product information): Less than 1% | retinal artery embolus, retinal detachment, vitreous hemorrhage from diabetic retinopathy (subjects; Xalatan product information): rarely reported | subjects requiring discontinuation of therapy because of intolerance to conjunctival hyperemia (subjects; Xalatan product information): Less than 1% | systemic adverse events: upper respiratory tract infection/cold/flu, rate (subjects): approximately 4% | time to peak concentration in the aqueous humor [3]: about two

SMILES: CCCCCCCCCCCCCC(=O)OC[C@H](COP(=O)([O-])OCC[N+](C)(C)C)OC(=O)CCCCCCCCCCCCC [DMPC, dimyristoyl phosphatidylcholine]
release (elution) rate of latanoprost from silicone matrix with excipient relative to no excipient [1]: increased elution rate

Results, then the molecule that gave them:

release (elution) rate of latanoprost from silicone matrix with excipient relative to no excipient [1]: increased elution rate
SMILES: CCCCCCCC/C=C\CCCCCCCC(=O)O[C@H](COC(=O)CCCCCCCCCCCCCCC)COP(=O)(O)OCC(O)CO (stereo partly drawn) [POPG, palmitoyl oleoyl phosphatidylglycerol]

release (elution) rate of latanoprost from silicone matrix with excipient relative to no excipient [1]: increased elution rate
SMILES: CCCCCCCCCCCCCC(=O)OCC(COP(=O)(O)OCC(O)CO)OC(=O)CCCCCCCCCCCCC (stereo not drawn) [DMPG, dimyristoyl phosphatidylglycerol]

release (elution) rate of latanoprost from silicone matrix with excipient relative to no excipient [1]: decreased elution rate
SMILES: CCCCCCCCCCCCCCCC(=O)OCC(COP(=O)(O)OCCN)OC(=O)CCCCCCCCCCCCCCC (stereo not drawn) [DPPE, dipalmitoyl phosphatidylethanolamine]

release (elution) rate of latanoprost from silicone matrix with excipient relative to no excipient [1]: decreased elution rate
SMILES: CCCCCCCCCCCCCCCC(=O)OC[C@H](COP(=O)([O-])OCC[N+](C)(C)C)OC(=O)CCCCCCCCCCCCCCC [DPPC, dipalmitoyl phosphatidylcholine]
